Measured values published in patent US20230143604A1, “QW DOSING OF GIP RECEPTOR AGONIST PEPTIDE COMPOUNDS AND USES THEREOF” (TAKEDA PHARMACEUTICAL COMPANY LIMITED, priority 2020, published 2023).
Starred links: 1 amine or outer side, 2 acyl side, 3 side chain; linkers in the order of their positions; H or OH if unused. Non-standard residues stand in square brackets, D forms with d. Residues, ends and D or L forms follow the SMILES beside them. Groups on a side chain read outwards from the residue. *: point of attachment. C20 diacid = O=C(O)CCCCCCCCCCCCCCCCCCC(=O)*; C18 diacid = O=C(O)CCCCCCCCCCCCCCCCC(=O)*; C17 diacid = O=C(O)CCCCCCCCCCCCCCCC(=O)*; γGlu = O=C(O)[C@H](CCC(=O)[*:2])N[*:1]; NMeY = CN[C@@H](Cc1ccc(O)cc1)C(=O)O; AEEA = NCCOCCOCC(=O)O; Aib = CC(C)(N)C(=O)O

Test: Solubility in phosphate buffer pH 7.4
Outline: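 3 mg of peptide treated with 100 μL portions of 200 mM phosphate buffer pH 7.4, sonicating/vortexing up to 1 min, with further buffer added until fully dissolved. Solubility then quantified by HPLC.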

[1] = pH 7.4, solubility in phosphate buffer at pH 7.4, 200 mM phosphate buffer pH 7.4
[2] = pH 7.4, aqueous buffer, pH 7.4 Phosphate Buffer - Solubility, 200 mM Phosphate buffer pH 7.4

SMILES | solubility [1] [mg/mL] | solubility (pH 7.4, aqueous buffer) [mg/mL] | solubility [2] [mg/mL] | solubility (pH 7.4) [mg/mL]
CC[C@H](C)[C@H](NC(=O)[C@H](CO)NC(=O)[C@H](Cc1ccc(O)cc1)NC(=O)[C@H](CC(=O)O)NC(=O)[C@H](CO)NC(=O)[C@@H](NC(=O)[C@H](Cc1ccccc1)NC(=O)[C@@H](NC(=O)CNC(=O)[C@H](CCC(=O)O)NC(=O)C(C)(C)NC(=O)[C@H](Cc1ccc(O)cc1)NC)[C@@H](C)O)[C@@H](C)CC)C(=O)N[C@@H](C)C(=O)N[C@@H](CC(C)C)C(=O)N[C@@H](CC(=O)O)C(=O)N[C@@H](CCCNC(=N)N)C(=O)NC(C)(C)C(=O)N[C@@H](CCCCNC(=O)COCCOCCNC(=O)COCCOCCNC(=O)CC[C@H](NC(=O)CC[C@H](NC(=O)CCCCCCCCCCCCCCCCCCC(=O)O)C(=O)O)C(=O)O)C(=O)N[C@@H](CCC(N)=O)C(=O)NC(C)(C)C(=O)N[C@@H](CC(N)=O)C(=O)N[C@@H](Cc1ccccc1)C(=O)N[C@H](C(=O)N[C@@H](CC(N)=O)C(=O)N[C@@H](Cc1c[nH]c2ccccc12)C(=O)N[C@@H](CC(C)C)C(=O)N[C@@H](CC(C)C)C(=O)N[C@@H](C)C(=O)N[C@@H](CCC(N)=O)C(=O)N[C@@H](CO)C(=O)N1CCC[C@H]1C(=O)N[C@@H](CO)C(=O)N[C@@H](CO)C(=O)NCC(=O)N[C@@H](C)C(=O)N1CCC[C@H]1C(=O)N1CCC[C@H]1C(=O)N1CCC[C@H]1C(=O)N[C@@H](CO)C(N)=O)C(C)C [Compound 68] (H-[NMeY][Aib]EGTFISDYSIALDR[Aib]K([AEEA-AEEA-γGlu-γGlu-C20 diacid])Q[Aib]NFVNWLLAQSPSSGAPPPS-NH2) | ≥ 15 | – | – | –
CC[C@H](C)[C@H](NC(=O)[C@H](CO)NC(=O)[C@H](Cc1ccc(O)cc1)NC(=O)[C@H](CC(=O)O)NC(=O)[C@H](CO)NC(=O)[C@@H](NC(=O)[C@H](Cc1ccccc1)NC(=O)[C@@H](NC(=O)CNC(=O)[C@H](CCC(=O)O)NC(=O)C(C)(C)NC(=O)[C@H](Cc1ccc(O)cc1)NC)[C@@H](C)O)[C@@H](C)CC)C(=O)N[C@@H](C)C(=O)N[C@@H](CCCCNC(=O)COCCOCCNC(=O)COCCOCCNC(=O)CC[C@H](NC(=O)CCCCCCCCCCCCCCCCC(=O)O)C(=O)O)C(=O)N[C@@H](CC(=O)O)C(=O)N[C@@H](CCCNC(=N)N)C(=O)N[C@H](C(=O)N[C@@H](Cc1c[nH]cn1)C(=O)N[C@@H](CCC(N)=O)C(=O)N[C@@H](CCC(N)=O)C(=O)N[C@@H](CC(N)=O)C(=O)N[C@@H](Cc1ccccc1)C(=O)N[C@H](C(=O)N[C@@H](CC(N)=O)C(=O)N[C@@H](Cc1c[nH]c2ccccc12)C(=O)N[C@@H](CC(C)C)C(=O)N[C@@H](CC(C)C)C(=O)N[C@@H](C)C(=O)N[C@@H](CCC(N)=O)C(=O)N[C@@H](CCCCN)C(=O)O)C(C)C)[C@@H](C)CC [Compound 245] (H-[NMeY][Aib]EGTFISDYSIAK([AEEA-AEEA-γGlu-C18 diacid])DRIHQQNFVNWLLAQK-OH; C-terminus assumed) | – | ≥ 7.5 | – | –
CC[C@H](C)[C@H](NC(=O)[C@H](CCCNC(=N)N)NC(=O)[C@H](CC(=O)O)NC(=O)[C@H](CC(C)C)NC(=O)[C@H](C)NC(=O)[C@@H](NC(=O)[C@H](CO)NC(=O)[C@H](Cc1ccc(O)cc1)NC(=O)[C@H](CC(=O)O)NC(=O)[C@H](CO)NC(=O)[C@@H](NC(=O)[C@H](Cc1ccccc1)NC(=O)[C@@H](NC(=O)CNC(=O)[C@H](CCC(=O)O)NC(=O)C(C)(C)NC(=O)[C@H](Cc1ccc(O)cc1)NC)[C@@H](C)O)[C@@H](C)CC)[C@@H](C)CC)C(=O)N[C@@H](C)C(=O)N[C@@H](CCC(N)=O)C(=O)N[C@@H](CCC(N)=O)C(=O)N[C@@H](CCCCNC(=O)COCCOCCNC(=O)COCCOCCNC(=O)CC[C@H](NC(=O)CC[C@H](NC(=O)CCCCCCCCCCCCCCCCC(=O)O)C(=O)O)C(=O)O)C(=O)N[C@@H](Cc1ccccc1)C(=O)N[C@H](C(=O)N[C@@H](CC(N)=O)C(=O)N[C@@H](Cc1c[nH]c2ccccc12)C(=O)N[C@@H](CC(C)C)C(=O)N[C@@H](CC(C)C)C(=O)N[C@@H](C)C(=O)N[C@@H](CCC(N)=O)C(=O)N[C@@H](CO)C(=O)N1CCC[C@H]1C(=O)N[C@@H](CO)C(=O)N[C@@H](CO)C(=O)NCC(=O)N[C@@H](C)C(=O)N1CCC[C@H]1C(=O)N1CCC[C@H]1C(=O)N1CCC[C@H]1C(=O)N[C@@H](CO)C(=O)O)C(C)C [Compound 177] (H-[NMeY][Aib]EGTFISDYSIALDRIAQQK([AEEA-AEEA-γGlu-γGlu-C18 diacid])FVNWLLAQSPSSGAPPPS-OH) | ≥ 15 | – | ≥ 30 | –
CC[C@H](C)[C@H](NC(=O)[C@H](CO)NC(=O)[C@H](Cc1ccc(O)cc1)NC(=O)[C@H](CC(=O)O)NC(=O)[C@H](CO)NC(=O)[C@@H](NC(=O)[C@H](Cc1ccccc1)NC(=O)[C@@H](NC(=O)CNC(=O)[C@H](CCC(=O)O)NC(=O)C(C)(C)NC(=O)[C@H](Cc1ccc(O)cc1)NC)[C@@H](C)O)[C@@H](C)CC)C(=O)N[C@@H](C)C(=O)N[C@@H](CCCCNC(=O)CNC(=O)CNC(=O)CNC(=O)CNC(=O)CNC(=O)CC[C@H](NC(=O)CCCCCCCCCCCCCCCC(=O)O)C(=O)O)C(=O)N[C@@H](CC(=O)O)C(=O)N[C@@H](CCCNC(=N)N)C(=O)NC(C)(C)C(=O)N[C@@H](C)C(=O)N[C@@H](CCC(N)=O)C(=O)NC(C)(C)C(=O)N[C@@H](CC(N)=O)C(=O)N[C@@H](Cc1ccccc1)C(=O)N[C@H](C(=O)N[C@@H](CC(N)=O)C(=O)N[C@@H](Cc1c[nH]c2ccccc12)C(=O)N[C@@H](CC(C)C)C(=O)N[C@@H](CC(C)C)C(=O)N[C@@H](C)C(=O)N[C@@H](CCC(N)=O)C(=O)N[C@@H](CCCNC(=N)N)C(=O)N1CCC[C@H]1C(=O)N[C@@H](CO)C(=O)N[C@@H](CO)C(=O)NCC(=O)N[C@@H](C)C(=O)N1CCC[C@H]1C(=O)N1CCC[C@H]1C(=O)N1CCC[C@H]1C(=O)N[C@@H](CO)C(N)=O)C(C)C [Compound 260] | – | – | < 6 | –
CC[C@H](C)[C@H](NC(=O)[C@H](CO)NC(=O)[C@H](Cc1ccc(O)cc1)NC(=O)[C@H](CC(=O)O)NC(=O)[C@H](CO)NC(=O)[C@@H](NC(=O)[C@H](Cc1ccccc1)NC(=O)[C@@H](NC(=O)CNC(=O)[C@H](CCC(=O)O)NC(=O)C(C)(C)NC(=O)[C@@H](N)Cc1ccc(O)cc1)[C@@H](C)O)[C@@H](C)CC)C(=O)N[C@@H](C)C(=O)N[C@@H](CC(C)C)C(=O)N[C@@H](CC(=O)O)C(=O)N[C@@H](CCCCN)C(=O)NC(C)(C)C(=O)N[C@@H](C)C(=O)N[C@@H](CCC(N)=O)C(=O)N[C@@H](CCC(N)=O)C(=O)N[C@@H](CCCCNC(=O)COCCOCCNC(=O)COCCOCCNC(=O)CC[C@H](NC(=O)CC[C@H](NC(=O)CCCCCCCCCCCCCCCC(=O)O)C(=O)O)C(=O)O)C(=O)N[C@@H](Cc1ccccc1)C(=O)N[C@H](C(=O)N[C@@H](CCC(=O)O)C(=O)N[C@@H](Cc1c[nH]c2ccccc12)C(=O)N[C@@H](CC(C)C)C(=O)N[C@@H](CC(C)C)C(=O)N[C@@H](C)C(=O)N[C@@H](CCC(N)=O)C(=O)N[C@@H](CCCNC(=N)N)C(=O)NCC(=O)O)C(C)C [Compound 130] (H-Y[Aib]EGTFISDYSIALDK[Aib]AQQK([AEEA-AEEA-γGlu-γGlu-C17 diacid])FVEWLLAQRG-OH) | – | ≥ 30 | – | ≥ 15
CC[C@H](C)[C@H](NC(=O)[C@H](CO)NC(=O)[C@H](Cc1ccc(O)cc1)NC(=O)[C@H](CC(=O)O)NC(=O)[C@H](CO)NC(=O)[C@@H](NC(=O)[C@H](Cc1ccccc1)NC(=O)[C@@H](NC(=O)CNC(=O)[C@H](CCC(=O)O)NC(=O)C(C)(C)NC(=O)[C@H](Cc1ccc(O)cc1)NC)[C@@H](C)O)[C@@H](C)CC)C(=O)N[C@@H](C)C(=O)N[C@@H](CC(C)C)C(=O)N[C@@H](CC(=O)O)C(=O)N[C@@H](CCCNC(=N)N)C(=O)N[C@H](C(=O)N[C@@H](CCCCNC(=O)COCCOCCNC(=O)COCCOCCNC(=O)CC[C@H](NC(=O)CC[C@H](NC(=O)CCCCCCCCCCCCCCCCC(=O)O)C(=O)O)C(=O)O)C(=O)N[C@@H](CCC(N)=O)C(=O)N[C@@H](CCC(N)=O)C(=O)N[C@@H](CC(=O)O)C(=O)N[C@@H](Cc1ccccc1)C(=O)N[C@H](C(=O)N[C@@H](CC(N)=O)C(=O)N[C@@H](Cc1c[nH]c2ccccc12)C(=O)N[C@@H](CC(C)C)C(=O)N[C@@H](CC(C)C)C(=O)N[C@@H](C)C(=O)N[C@@H](CCC(N)=O)C(=O)N[C@@H](CCCNC(=N)N)C(=O)N1CCC[C@H]1C(=O)N[C@@H](CO)C(=O)N[C@@H](CO)C(=O)NCC(=O)O)C(C)C)[C@@H](C)CC [Compound 287] (H-[NMeY][Aib]EGTFISDYSIALDRIK([AEEA-AEEA-γGlu-γGlu-C18 diacid])QQDFVNWLLAQRPSSG-OH) | – | < 6 | – | –
CC[C@H](C)[C@H](NC(=O)[C@H](CO)NC(=O)[C@H](Cc1ccc(O)cc1)NC(=O)[C@H](CC(=O)O)NC(=O)[C@H](CO)NC(=O)[C@@H](NC(=O)[C@H](Cc1ccccc1)NC(=O)[C@@H](NC(=O)CNC(=O)[C@H](CCC(=O)O)NC(=O)C(C)(C)NC(=O)[C@H](Cc1ccc(O)cc1)NC)[C@@H](C)O)[C@@H](C)CC)C(=O)N[C@@H](C)C(=O)N[C@@H](CC(C)C)C(=O)N[C@@H](CC(=O)O)C(=O)N[C@@H](CO)C(=O)N[C@@H](CCCCNC(=O)CNC(=O)CNC(=O)CNC(=O)CNC(=O)CNC(=O)CCCCCCCCCCCCCCCCC(=O)O)C(=O)N[C@@H](C)C(=O)N[C@@H](CCC(N)=O)C(=O)NC(C)(C)C(=O)N[C@@H](CC(=O)O)C(=O)N[C@@H](Cc1ccccc1)C(=O)N[C@H](C(=O)N[C@@H](CC(N)=O)C(=O)N[C@@H](Cc1c[nH]c2ccccc12)C(=O)N[C@@H](CC(C)C)C(=O)N[C@@H](CC(C)C)C(=O)N[C@@H](C)C(=O)N[C@@H](CCC(N)=O)C(=O)N[C@@H](CCCCN)C(=O)NCC(=O)O)C(C)C [Compound 78] | – | ≥ 30 | – | ≥ 15
